Experimental data: the NIST ThermoML archive (doi:10.1007/s10765-006-0082-x)
Numbers after ± are expanded uncertainties.

Experiment: compressibility factor (dimensionless); xn = mol fraction of the nth substance listed
Conditions: Liquid, Burnett expansion method

[N-]=[N+]=O [nitrous oxide] + FC(F)F
Conditions | compressibility factor
303.25 K, 141.8 kPa, x1 = 0.6613 | 0.9915 ± 0.0001
303.25 K, 151.7 kPa, x1 = 0.3152 | 0.9906 ± 0.0001
303.25 K, 160.7 kPa, x1 = 0.2248 | 0.991 ± 0.0002
303.25 K, 174.2 kPa, x1 = 0.5419 | 0.9896 ± 0.0001
303.25 K, 182.2 kPa, x1 = 0.4308 | 0.9882 ± 0.0001
303.25 K, 209.6 kPa, x1 = 0.7758 | 0.9883 ± 0.0001
303.25 K, 211.4 kPa, x1 = 0.6613 | 0.9879 ± 0.0001
303.25 K, 225.8 kPa, x1 = 0.3152 | 0.9858 ± 0.0001
303.25 K, 239.5 kPa, x1 = 0.2248 | 0.9872 ± 0.0002
303.25 K, 259.3 kPa, x1 = 0.5419 | 0.9847 ± 0.0001
303.25 K, 271.2 kPa, x1 = 0.4308 | 0.9832 ± 0.0001
303.25 K, 311.9 kPa, x1 = 0.7758 | 0.983 ± 0.0001
303.25 K, 314.4 kPa, x1 = 0.6613 | 0.9824 ± 0.0001
303.25 K, 335.5 kPa, x1 = 0.3152 | 0.9789 ± 0.0001
303.25 K, 356.1 kPa, x1 = 0.2248 | 0.9814 ± 0.0002
303.25 K, 385.1 kPa, x1 = 0.5419 | 0.9775 ± 0.0001
303.25 K, 402.6 kPa, x1 = 0.4308 | 0.9756 ± 0.0001
303.25 K, 462.7 kPa, x1 = 0.7758 | 0.9749 ± 0.0001
303.25 K, 466.4 kPa, x1 = 0.6613 | 0.974 ± 0.0001
303.25 K, 496.7 kPa, x1 = 0.3152 | 0.9688 ± 0.0001
303.25 K, 528.1 kPa, x1 = 0.2248 | 0.9726 ± 0.0002
303.25 K, 569.8 kPa, x1 = 0.5419 | 0.9668 ± 0.0001
303.25 K, 595 kPa, x1 = 0.4308 | 0.9638 ± 0.0001
303.25 K, 683.7 kPa, x1 = 0.7758 | 0.9628 ± 0.0001
303.25 K, 688.8 kPa, x1 = 0.6613 | 0.9615 ± 0.0001
303.25 K, 731.3 kPa, x1 = 0.3152 | 0.9534 ± 0.0001
303.25 K, 779.4 kPa, x1 = 0.2248 | 0.9596 ± 0.0002
303.25 K, 838.3 kPa, x1 = 0.5419 | 0.9507 ± 0.0001
303.25 K, 874.1 kPa, x1 = 0.4308 | 0.9464 ± 0.0001
303.25 K, 1003.6 kPa, x1 = 0.7758 | 0.9446 ± 0.0001
303.25 K, 1010.4 kPa, x1 = 0.6613 | 0.9427 ± 0.0001
303.25 K, 1068.3 kPa, x1 = 0.3152 | 0.9309 ± 0.0001
303.25 K, 1142.3 kPa, x1 = 0.2248 | 0.94 ± 0.0002
303.25 K, 1222.8 kPa, x1 = 0.5419 | 0.9269 ± 0.0001
303.25 K, 1272.3 kPa, x1 = 0.4308 | 0.9208 ± 0.0001
303.25 K, 1459.1 kPa, x1 = 0.7758 | 0.918 ± 0.0001
303.25 K, 1467.5 kPa, x1 = 0.6613 | 0.9152 ± 0.0001
303.25 K, 1541.6 kPa, x1 = 0.3152 | 0.8979 ± 0.0001
303.25 K, 1657.1 kPa, x1 = 0.2248 | 0.9115 ± 0.0002
303.25 K, 1760.9 kPa, x1 = 0.5419 | 0.8922 ± 0.0001
303.25 K, 1825.8 kPa, x1 = 0.4308 | 0.8832 ± 0.0001
303.25 K, 2090.5 kPa, x1 = 0.7758 | 0.8791 ± 0.0001
303.25 K, 2099 kPa, x1 = 0.6613 | 0.8749 ± 0.0001
303.25 K, 2185.1 kPa, x1 = 0.3152 | 0.8507 ± 0.0001
303.25 K, 2366.6 kPa, x1 = 0.2248 | 0.8701 ± 0.0001
303.25 K, 2486.5 kPa, x1 = 0.5419 | 0.8421 ± 0.0001
303.25 K, 2565.1 kPa, x1 = 0.4308 | 0.8294 ± 0.0001
303.25 K, 2929 kPa, x1 = 0.7758 | 0.8233 ± 0.0001
303.25 K, 2933.8 kPa, x1 = 0.6613 | 0.8174 ± 0.0001
303.25 K, 3012.1 kPa, x1 = 0.3152 | 0.7838 ± 0.0001
303.25 K, 3303.6 kPa, x1 = 0.2248 | 0.8119 ± 0.0001
303.25 K, 3408.6 kPa, x1 = 0.5419 | 0.7716 ± 0.0001
303.25 K, 3489.6 kPa, x1 = 0.4308 | 0.7542 ± 0.0001
303.25 K, 3965.1 kPa, x1 = 0.7758 | 0.7449 ± 0.0001
323.43 K, 176.4 kPa, x1 = 0.5105 | 0.9908 ± 0.0001
323.43 K, 262.8 kPa, x1 = 0.5105 | 0.987 ± 0.0001
323.43 K, 391 kPa, x1 = 0.5105 | 0.9814 ± 0.0001
323.43 K, 579.9 kPa, x1 = 0.5105 | 0.9729 ± 0.0001
323.43 K, 856.1 kPa, x1 = 0.5105 | 0.96 ± 0.0001
323.43 K, 1255 kPa, x1 = 0.5105 | 0.9406 ± 0.0001
323.43 K, 1820.9 kPa, x1 = 0.5105 | 0.9123 ± 0.0001
323.43 K, 2601.4 kPa, x1 = 0.5105 | 0.8711 ± 0.0001
323.43 K, 3632.8 kPa, x1 = 0.5105 | 0.8131 ± 0.0001
323.44 K, 159.9 kPa, x1 = 0.6428 | 0.9917 ± 0.0001
323.44 K, 170.7 kPa, x1 = 0.7792 | 0.992 ± 0.0001
323.44 K, 174 kPa, x1 = 0.358 | 0.9909 ± 0.0001
323.44 K, 238.4 kPa, x1 = 0.6428 | 0.9886 ± 0.0001
323.44 K, 254.5 kPa, x1 = 0.7792 | 0.9888 ± 0.0001
323.44 K, 259.3 kPa, x1 = 0.358 | 0.9869 ± 0.0001
323.44 K, 354.9 kPa, x1 = 0.6428 | 0.9837 ± 0.0001
323.44 K, 378.9 kPa, x1 = 0.7792 | 0.9837 ± 0.0001
323.44 K, 385.6 kPa, x1 = 0.358 | 0.9809 ± 0.0001
323.44 K, 527.1 kPa, x1 = 0.6428 | 0.9764 ± 0.0001
323.44 K, 562.3 kPa, x1 = 0.7792 | 0.9759 ± 0.0001
323.44 K, 571.6 kPa, x1 = 0.358 | 0.972 ± 0.0001
323.44 K, 779.5 kPa, x1 = 0.6428 | 0.9653 ± 0.0001
323.44 K, 831.2 kPa, x1 = 0.7792 | 0.9642 ± 0.0001
323.44 K, 843.2 kPa, x1 = 0.358 | 0.9583 ± 0.0001
323.44 K, 1145.9 kPa, x1 = 0.6428 | 0.9485 ± 0.0001
323.44 K, 1221 kPa, x1 = 0.7792 | 0.9467 ± 0.0001
323.44 K, 1235.2 kPa, x1 = 0.358 | 0.9384 ± 0.0001
323.44 K, 1669.1 kPa, x1 = 0.6428 | 0.9234 ± 0.0001
323.44 K, 1777.2 kPa, x1 = 0.7792 | 0.921 ± 0.0001
323.44 K, 1790.3 kPa, x1 = 0.358 | 0.9091 ± 0.0001
323.44 K, 2399.2 kPa, x1 = 0.6428 | 0.8872 ± 0.0001
323.44 K, 2551 kPa, x1 = 0.7792 | 0.8837 ± 0.0001
323.44 K, 2553.4 kPa, x1 = 0.358 | 0.8666 ± 0.0001
323.44 K, 3379.9 kPa, x1 = 0.6428 | 0.8354 ± 0.0001
323.44 K, 3557 kPa, x1 = 0.358 | 0.8069 ± 0.0001
323.44 K, 3585.4 kPa, x1 = 0.7792 | 0.8302 ± 0.0001
343.87 K, 201 kPa, x1 = 0.7837 | 0.9917 ± 0.0001
343.87 K, 299.8 kPa, x1 = 0.7837 | 0.9888 ± 0.0001
343.87 K, 446.5 kPa, x1 = 0.7837 | 0.9842 ± 0.0001
343.87 K, 663 kPa, x1 = 0.7837 | 0.9769 ± 0.0001
343.87 K, 980.8 kPa, x1 = 0.7837 | 0.966 ± 0.0001
343.87 K, 1442.6 kPa, x1 = 0.7837 | 0.9497 ± 0.0001
343.87 K, 2103.1 kPa, x1 = 0.7837 | 0.9254 ± 0.0001
343.87 K, 3026.4 kPa, x1 = 0.7837 | 0.8901 ± 0.0001
343.87 K, 4273 kPa, x1 = 0.7837 | 0.8401 ± 0.0001
343.95 K, 79.8 kPa, x1 = 0.6698 | 0.9965 ± 0.0001
343.95 K, 90.5 kPa, x1 = 0.2403 | 0.991 ± 0.0002
343.95 K, 92.3 kPa, x1 = 0.4174 | 0.9925 ± 0.0001
343.95 K, 119.5 kPa, x1 = 0.6698 | 0.9953 ± 0.0001
343.95 K, 128.4 kPa, x1 = 0.536 | 0.9933 ± 0.0001
343.95 K, 135.6 kPa, x1 = 0.2403 | 0.991 ± 0.0002
343.95 K, 138.2 kPa, x1 = 0.4174 | 0.9917 ± 0.0001
343.95 K, 178.9 kPa, x1 = 0.6698 | 0.9945 ± 0.0001
343.95 K, 192 kPa, x1 = 0.536 | 0.9915 ± 0.0001
343.95 K, 202.9 kPa, x1 = 0.2403 | 0.9897 ± 0.0002
343.95 K, 206.8 kPa, x1 = 0.4174 | 0.9901 ± 0.0001
343.95 K, 266.9 kPa, x1 = 0.6698 | 0.9901 ± 0.0001
343.95 K, 287 kPa, x1 = 0.536 | 0.9886 ± 0.0001
343.95 K, 303.2 kPa, x1 = 0.2403 | 0.9866 ± 0.0002
343.95 K, 308.9 kPa, x1 = 0.4174 | 0.9871 ± 0.0001
343.95 K, 398.2 kPa, x1 = 0.6698 | 0.9857 ± 0.0001
343.95 K, 428 kPa, x1 = 0.536 | 0.9839 ± 0.0001
343.95 K, 451.8 kPa, x1 = 0.2403 | 0.9812 ± 0.0002
343.95 K, 460.6 kPa, x1 = 0.4174 | 0.9821 ± 0.0001
343.95 K, 592.7 kPa, x1 = 0.6698 | 0.9789 ± 0.0001
343.95 K, 636.6 kPa, x1 = 0.536 | 0.9767 ± 0.0001
343.95 K, 671.3 kPa, x1 = 0.2403 | 0.9728 ± 0.0002
343.95 K, 684.7 kPa, x1 = 0.4174 | 0.9741 ± 0.0001
343.95 K, 879 kPa, x1 = 0.6698 | 0.9688 ± 0.0001
343.95 K, 943.2 kPa, x1 = 0.536 | 0.9656 ± 0.0001
343.95 K, 992.7 kPa, x1 = 0.2403 | 0.9599 ± 0.0002
343.95 K, 1013 kPa, x1 = 0.4174 | 0.9617 ± 0.0001
343.95 K, 1296.6 kPa, x1 = 0.6698 | 0.9537 ± 0.0001
343.95 K, 1389 kPa, x1 = 0.536 | 0.9489 ± 0.0001
343.95 K, 1457.5 kPa, x1 = 0.2403 | 0.9405 ± 0.0002
343.95 K, 1488.7 kPa, x1 = 0.4174 | 0.9431 ± 0.0001
343.95 K, 1897.6 kPa, x1 = 0.6698 | 0.9313 ± 0.0001
343.95 K, 2027.4 kPa, x1 = 0.536 | 0.9241 ± 0.0001
343.95 K, 2117.9 kPa, x1 = 0.2403 | 0.9119 ± 0.0002
343.95 K, 2166.3 kPa, x1 = 0.4174 | 0.9157 ± 0.0001
343.95 K, 2743.8 kPa, x1 = 0.6698 | 0.8986 ± 0.0001
343.95 K, 2920 kPa, x1 = 0.536 | 0.8882 ± 0.0001
343.95 K, 3030.8 kPa, x1 = 0.2403 | 0.8708 ± 0.0001
343.95 K, 3105.8 kPa, x1 = 0.4174 | 0.8761 ± 0.0001
343.95 K, 3898.2 kPa, x1 = 0.6698 | 0.8519 ± 0.0001
343.95 K, 4125.5 kPa, x1 = 0.536 | 0.8374 ± 0.0001
343.95 K, 4242.9 kPa, x1 = 0.2403 | 0.8135 ± 0.0001
343.95 K, 4359.1 kPa, x1 = 0.4174 | 0.8205 ± 0.0001
